The term IC50 denotes the concentration that gives 50% inhibition.

≈ marks a conversion by molar mass, not a printed value.

One experiment has as its system T. cruzi Tulahuen strain C2C4. Briefly: Activity against T. cruzi (beta-galactosidase expressing parasites in L-6 cells). In kind it is cell-based, Trypanosoma cruzi. Conditions: Trypanosoma cruzi, TULAHUEN, L6, in Rattus norvegicus, 96 h, read-out: Activity (IC50). The protocol: Activity against T. cruzi. Rat skeletal myoblasts (L-6 cells) were seeded in 96-well microtitre plates at 2000 cells/well in 100 μL RPMI 1640 medium with 10% FBS and 2 mM 1-glutamine. After 24 h the medium was removed and replaced by 100 μl per well containing 5000 trypomastigote forms of T. cruzi Tulahuen strain C2C4 containing the […] (Lac Z) gene (Buckner et al. 1996). After 48 h the medium was removed from the wells and replaced by 100 μl fresh medium with or without a serial drug dilution of eleven 3-fold dilution steps covering a range from 100 to 0.002 μg/ml. After 96 h of incubation the plates were inspected under an inverted microscope to assure growth of the controls and sterility. Then the substrate CPRG/Nonidet (50 μl) was added to all wells. A color reaction developed within 2-6 h and could be read photometrically at 540 nm. Data were analyzed with the graphic programme Softmax Pro (Molecular Devices), which calculated IC50 values by linear regression (Huber 1993) from the sigmoidal dose inhibition curves. Benznidazole is used as control (IC50 0.5±0.2 ug/ml). • Buckner, F. S., C. L. Verlinde, A. C. La Flamme, and W. C. Van Voorhis. 1996. Efficient technique for screening drugs for activity against Trypanosoma cruzi using parasites expressing beta-galactosidase, p. 2592-2597, vol. 40. • Huber, W. Koella, J. C. 1993. A comparison of the three methods of estimating EC50 in studies of drug resistance of malaria parasites. Acta Trop. 55, 257-261.
As to `CC(=O)Nc1ccc2[nH]c(=O)n(Cc3cccc(C(F)(F)F)c3)c(=O)c2c1` [Example 43, N-(2,4-dioxo-3-(3-(trifluoromethyl)benzyl)-1,2,3,4-tetrahydroquinazolin-6-yl)acetamide], the IC50 was determined as 0.804 µg/mL (≈ 2.13 µM).

The experiment is the same for the next values; noted with them: Trypanosoma cruzi, TULAHUEN, L6, in Rattus norvegicus, 96 h, trypomastigotes in rat skeletal myoblasts (L-6 cells), 96 h incubation, CPRG/Nonidet read at 540 nm; read-out: Activity (IC50).
Take `CC(=O)Nc1ccc2[nH]c(=O)n(C(CC3CCCCC3)C(N)=O)c(=O)c2c1` (centres unmarked) [Example 7, 2-(6-Acetamido-2,4-dioxo-1,4-dihydroquinazolin-3(2H)-yl)-3-cyclohexylpropanamide]: the IC50 was found to be 63.6 µg/mL (≈ 171 µM).
In the case of `CCOC(=O)Nc1ccc2c(c1)c(=O)n(CCC1CCCCC1)c(=O)n2CC` [Example 13c, Ethyl (3-(2-cyclohexylethyl)-1-ethyl-2,4-dioxo-1,2,3,4-tetrahydroquinazolin-6-yl)carbamate], the IC50 is 5.23 µg/mL (≈ 13.5 µM).
On to `CCNc1ccc2c(c1)c(=O)n(CCC1CCCCC1)c(=O)n2CC` [Example 12b, 3-(2-cyclohexylethyl)-1-ethyl-6-(ethylamino)quinazoline-2,4(1H,3H)-dione], for which the half-maximal inhibitory concentration (IC50) came out at 7.7 µg/mL (≈ 22.4 µM).
For `CC(=O)Nc1ccc2[nH]c(=O)n(C3CCCCCC3)c(=O)c2c1` [Example 46, N-(3-Cycloheptyl-2,4-dioxo-1,2,3,4-tetrahydro-quinazolin-6-yl)acetamide], the IC50 was found to be 0.661 µg/mL (≈ 2.1 µM).
On to `CCCCCCn1c(=O)[nH]c2ccc(NC(C)=O)cc2c1=O` [Example 41, N-(3-hexyl-2,4-dioxo-1,2,3,4-tetrahydroquinazolin-6-yl)acetamide], for which the IC50 was determined as 0.881 µg/mL (≈ 2.9 µM).
As for `CC(=O)Nc1cnc2[nH]c(=O)n([C@H]3CC[C@H](C(C)(C)C)CC3)c(=O)c2c1` [Example 33, N-[3-(trans-4-tert-Butyl-cyclohexyl)-2,4-dioxo-1,2,3,4-tetrahydro-pyrido[2,3-d]pyrimidin-6-yl]-acetamide], the IC50 was 0.196 µg/mL (≈ 0.547 µM).
On to `CC(=O)Nc1ccc2[nH]c(=O)n([C@H]3CCO[C@@H](C(C)(C)C)C3)c(=O)c2c1` [Example 61, N-(3-((2R,4S)-2-(Tert-butyl)tetrahydro-2H-pyran-4-yl)-2,4-dioxo-1,2,3,4-tetrahydroquinazolin-6-yl)acetamide], for which the IC50 was 0.744 µg/mL (≈ 2.07 µM).
Same read-out and setting: the result for `O=c1[nH]c2ccc(-c3cncnc3)cc2c(=O)n1CCC1CCCCC1` [Example 18, 3-(2-Cyclohexylethyl)-6-(pyrimidin-5-yl)quinazoline-2,4(1H,3H)-dione] reads 4.93 µg/mL (≈ 14.1 µM).
For `CC[C@H]1CC[C@@H](n2c(=O)[nH]c3ccc(N)cc3c2=O)CC1` [24 (cis), 6-Amino-3-(cis-4-ethyl-cyclohexyl)-1H-quinazoline-2,4-dione], the IC50 is 0.096 µg/mL (≈ 0.334 µM).
For `O=c1[nH]c2ccc(-c3ccncc3)cc2c(=O)n1CCC1CCCCC1` [Example 19, 3-(2-Cyclohexylethyl)-6-(pyridin-4-yl)quinazoline-2,4(1H,3H)-dione], the IC50 turned out to be 0.605 µg/mL (≈ 1.73 µM).
On to `Cc1noc(C)c1-c1ccc2[nH]c(=O)n(CCC3CCCCC3)c(=O)c2c1` [Example 16c, 3-(2-Cyclohexylethyl)-6-(3,5-dimethylisoxazol-4-yl)quinazoline-2,4(1H,3H)-dione], for which the IC50 was 11.5 µg/mL (≈ 31.3 µM).
With `CC(C)(C)C1CCC(n2c(=O)[nH]c3ccc(-c4cccnc4)cc3c2=O)CC1` (centres unmarked) [Example 22, 3-(4-(tert-butyl)cyclohexyl)-6-(pyridin-3-yl)quinazoline-2,4(1H,3H)-dione], the IC50 came out at 2.63 µg/mL (≈ 6.97 µM).
On the same count and under the same terms, the result for `CC(=O)Nc1ccc2[nH]c(=O)n(C3CCC(C(C)(C)C)C3)c(=O)c2c1` (centres unmarked) [Example 60, N-(3-(3-(Tert-butyl)cyclopentyl)-2,4-dioxo-1,2,3,4-tetrahydroquinazolin-6-yl)acetamide] reads 0.007 µg/mL (≈ 0.0204 µM); that for `CC(=O)Nc1ccc2[nH]c(=O)n([C@H]3CC[C@H](C(C)(C)F)CC3)c(=O)c2c1` [Example 62, N-(3-((1r,4r)-4-(2-Fluoropropan-2-yl)cyclohexyl)-2,4-dioxo-1,2,3,4-tetrahydroquinazolin-6-yl)acetamide], 0.933 µg/mL (≈ 2.58 µM).
As for `CC(C)(C)[C@H]1CC[C@@H](n2c(=O)[nH]c3ccc(N)cc3c2=O)CC1` [23b (cis), 6-amino-3-(cis-4-tert-butyl-cyclohexyl)-1H-quinazoline-2,4-dione], the IC50 was determined as 0.007 µg/mL (≈ 0.0222 µM).
Turning to `O=C(Nc1ccc2[nH]c(=O)n(CCC3CCCCC3)c(=O)c2c1)c1ccccc1` [Example 14c, N-(3-(2-Cyclohexylethyl)-2,4-dioxo-1,2,3,4-tetrahydroquinazolin-6-yl)benzamide], the IC50 is 5.88 µg/mL (≈ 15 µM).
Take `CC(=O)Nc1ccc2[nH]c(=O)n(CCCc3ccc(F)cc3)c(=O)c2c1` [Example 44, N-(3-(3-(4-fluorophenyl)propyl)-2,4-dioxo-1,2,3,4-tetrahydroquinazolin-6-yl)acetamide]: the IC50 was found to be 0.943 µg/mL (≈ 2.65 µM).
Take `CC[C@H]1CC[C@@H](n2c(=O)[nH]c3ccc(NC(C)=O)cc3c2=O)CC1` [Example 55, N-(3-((1s,4s)-4-Ethylcyclohexyl)-2,4-dioxo-1,2,3,4-tetrahydroquinazolin-6-yl)acetamide]: the IC50 was 0.3 µg/mL (≈ 0.911 µM).
As for `COCCn1c(=O)[nH]c2ccc(NC(C)=O)cc2c1=O` [Example 6, N-(3-(2-methoxyethyl)-2,4-dioxo-1,2,3,4-tetrahydroquinazolin-6-yl)acetamide], the IC50 was determined as 9.62 µg/mL (≈ 34.7 µM).
`CC(=O)Nc1ccc2[nH]c(=O)n([C@H]3CC[C@@H](C(C)C)CC3)c(=O)c2c1` [Example 47, N-(3-((1s,4s)-4-Isopropylcyclohexyl)-2,4-dioxo-1,2,3,4-tetrahydroquinazolin-6-yl)acetamide]: the IC50 stood at 0.087 µg/mL (≈ 0.253 µM).
Turning to `CCC[C@H]1CC[C@@H](n2c(=O)[nH]c3ccc(NC(C)=O)cc3c2=O)CC1` [Example 57, N-(2,4-Dioxo-3-((1r,4s)-4-propylcyclohexyl)-1,2,3,4-tetrahydroquinazolin-6-yl)acetamide], the IC50 came to 0.06 µg/mL (≈ 0.175 µM).
The same measure, in the same setting: the result for `CC(C)(C)[C@H]1CC[C@H](n2c(=O)[nH]c3ncc(N)cc3c2=O)CC1` [Example 26e, 6-Amino-3-(trans-4-tert-butyl-cyclohexyl)-1H-pyrido[2,3-d]pyrimidine-2,4-dione] reads 0.209 µg/mL (≈ 0.661 µM); that for `CC(=O)Nc1ccc2[nH]c(=O)n([C@H]3CC[C@H](C(F)(F)F)CC3)c(=O)c2c1` [Example 53, N-(2,4-dioxo-3-((1r,4r)-4-(trifluoromethyl)cyclohexyl)-1,2,3,4-tetrahydroquinazolin-6-yl)acetamide], 0.13 µg/mL (≈ 0.352 µM); that for `CC(=O)Nc1ccc2[nH]c(=O)n([C@H]3CC[C@H](C(C)(C)C)CC3)c(=O)c2c1` [Example 49, N-(3-((1r,4r)-4-(tert-butyl)cyclohexyl)-2,4-dioxo-1,2,3,4-tetrahydroquinazolin-6-yl)acetamide], 0.008 µg/mL (≈ 0.0224 µM).
`CC(C)(C)[C@H]1CC[C@H](n2c(=O)[nH]c3ccc(N)cc3c2=O)CC1` [23b (trans), 6-amino-3-(trans-4-tert-butyl-cyclohexyl)-1H-quinazoline-2,4-dione]: the IC50 was found to be 0.03 µg/mL (≈ 0.0951 µM).
On to `CC(=O)Nc1ccc2[nH]c(=O)n(CCCN3CCOCC3)c(=O)c2c1` [Example 40, N-(3-(3-Morpholinopropyl)-2,4-dioxo-1,2,3,4-tetrahydroquinazolin-6-yl)acetamide], for which the IC50 is 55.3 µg/mL (≈ 160 µM).
In the case of `CCC[C@H]1CC[C@H](n2c(=O)[nH]c3ccc(NC(C)=O)cc3c2=O)CC1` [Example 58, N-(2,4-Dioxo-3-((1s,4r)-4-propylcydohexyl)-1,2,3,4-tetrahydroquinazolin-6-yl)acetamide], the IC50 came to 0.007 µg/mL (≈ 0.0204 µM).
On to `O=c1[nH]c2ccc(-c3cccnc3)cc2c(=O)n1CCC1CCCCC1` [Example 17, 3-(2-Cyclohexylethyl)-6-(pyridin-3-yl)quinazoline-2,4(1H,3H)-dione], for which the IC50 came out at 0.655 µg/mL (≈ 1.87 µM).
As to `CC(=O)Nc1ccc2[nH]c(=O)n(C3C4CC5CC(C4)CC3C5)c(=O)c2c1` (centres unmarked) [Example 51, N-(3-((1r,3r,5r,7r)-adamantan-2-yl)-2,4-dioxo-1,2,3,4-tetrahydroquinazolin-6-yl)acetamide], the IC50 amounted to 0.178 µg/mL (≈ 0.504 µM).
With `CC(=O)Nc1ccc2[nH]c(=O)n(C3CCC(C)(C)CC3)c(=O)c2c1` [Example 52, N-(3-(4,4-dimethylcyclohexyl)-2,4-dioxo-1,2,3,4-tetrahydroquinazolin-6-yl)acetamide], the IC50 is 0.058 µg/mL (≈ 0.176 µM).
Turning to `CC(C)C1CCC(n2c(=O)[nH]c3ccc(N)cc3c2=O)CC1` (racemic) [25 (rac), 6-Amino-3-(4-isopropylcyclohexyl)-1H-quinazoline-2,4-dione], the IC50 turned out to be 0.028 µg/mL (≈ 0.0929 µM).
Consider `CCC1CCC(n2c(=O)[nH]c3ccc(N)cc3c2=O)CC1` (racemic) [24 (rac), 6-Amino-3-(4-ethyl-cyclohexyl)-1H-quinazoline-2,4-dione], for which the IC50 stood at 0.022 µg/mL (≈ 0.0766 µM).
With `CC(=O)Nc1ccc2[nH]c(=O)n(CCC3CCCC3)c(=O)c2c1` [Example 42, N-(3-(2-cyclopentylethyl)-2,4-dioxo-1,2,3,4-tetrahydroquinazolin-6-yl)acetamide], the IC50 was determined as 0.713 µg/mL (≈ 2.26 µM).

Still in this experiment, the particulars now being: trypomastigotes in rat skeletal myoblasts (L-6 cells), 96 h incubation, CPRG/Nonidet read at 540 nm.
For the molecule `CCC1CCC(n2c(=O)[nH]c3ncc(NC(C)=O)cc3c2=O)CC1` (centres unmarked) [Example 36, N-(3-((1s,4s)-4-ethylcyclohexyl)-2,4-dioxo-1,2,3,4-tetrahydropyrido[2,3-d]pyrimidin-6-yl)acetamide], the “Activity (IC50)” value stood at 0.110 µg/mL.
